Test results published in patent US8623661B2, “Iron chelating agent, method for producing same, method for determining amount of iron ions and method for trapping iron ions” (National University Corporation Asahikawa Medical College, priority 2008, dated 2014).

What was measured:
Format in all cases: binding
[1] = test system: iron nitrilotriacetate complex (Fe-NTA); assay: Evaluation C: chelating ability in MOPS/acetonitrile solvent, Fe-NTA solution
Procedure: (§1) Evaluation was carried out by the following evaluation method C as to whether or not the iron chelating agent according to Examples 1 to 3 had chelating ability with iron in 3-morpholinopropanesulfonic acid (C7H15NO4S;MOPS) and acetonitrile solution as solvents used in high performance liquid chromatography (HPLC).
(§2) 2.09 g of morpholinopropanesulfonic acid (C7H15NO4S; FW=209.26, Code 341-01801, Lot PX013, manufactured by Dojindo/Wako Corporation) was added to a 100 mL Erlenmeyer flask, 80 mL of ultrapure water (pure water produced by an ultrapure water production system manufactured by Millipore Corporation (Milli-Q); “Milli-Q water”) was added thereto and dissolved [pH 4.15 (24.4° C.)]. To this solution, 1N sodium hydroxide solution (1 mol/1 sodium hydroxide solution, Code 192-02175, Lot SEP7274, manufactured by Wako Pure Chemicals Industries) was added in 100 μl portions, the pH was adjusted to 7.0 and further Milli-Q water was made up to 100 mL in a measuring cylinder, whereby 100 mL of MOPS solution (pH 6.99) was prepared.
(§3) An iron chelating agent solution having an iron chelating agent concentration of 50 mM was prepared with respect to the iron chelating agent according to Examples 1 to 3, in the same manner as the preparation method of the iron chelating solution in evaluation A of the iron chelating agent.
(§4) Further, 100 mM of MOPS solution (pH6.99) prepared by the preparation method of the MOPS solution was used.
(§5) Furthermore, a stock solution of acetonitrile (C2H3N, FW=41.05, Code 347-06641, Lot WPI96, manufactured by Dojindo/Wako corporation) was used.
(§6) 13.8 mL of Milli-Q water was taken in a 50 mL conical tube, 1.2 mL of each of the iron chelating agent solutions (Fe-Ser•Na (50 mM), Fe-His•Na (50 mM), Fe-Glu•Na (50 mM)) according to the iron chelating agents of Examples 1 to 3 was added, 1.0 mL of 100 mM MOPS solution was added thereto, and a further 4.0 mL of acetonitrile solution was added to produce an iron chelating solution using MOPS. The iron chelating agent solutions using MOPS and iron chelating agent according to Examples 1 to 3 were defined respectively as Fe-Ser•Na (MOPS solution)” (iron chelating agent according to
(§7) Example 1), “Fe-His•Na (MOPS solution)” (iron chelating agent according to Example 2), and “Fe-Glu•Na(MOPS solution)” (iron chelating agent according to Example 3).
Further, iron nitrilotriacetate complex solution (“Fe-NTA solution (20 mM)”) having a concentration of iron ions of 20 mM and iron nitrilotriacetate complex solution (“Fe-NTA solution (2 mM)”) having a concentration of iron ions of 2 mM were prepared, in the same manner as the preparation method of iron nitrilotriacetate complex solution in evaluation B of the iron chelating agent.
Further, Fe-NTA solution (20 mM) was added to and mixed with each of the iron chelating agent solutions [Fe-Ser•Na (MOPS solution), Fe-His•Na (MOPS solution), Fe-Glu•Na (MOPS solution)] using MOPS. […] Further, Fe-NTA solution (2 mM) was added and mixed thereto as described above.

[2] = test system: iron citrate complex ammonium salt (FAC); assay: Evaluation A: chelating ability with iron, absorbance after adding chelating agent to iron citrate complex ammonium salt (FAC) solution; settings: for [B] absorbance after addition of iron chelating agent / [B]-[A]: 470 nm; for [B]-[A]: minus blank
Procedure: Evaluation was carried out by the following evaluation method A as to whether the iron chelating agent according to Example 1 had chelating ability with iron.
335 mg of the iron chelating agent (MW:209.2) according to Example 1 was added to a 50 mL conical tube, 15 mL of Dulbecco's phosphate buffered saline (pH 7.2;1×D-PBS) was added thereto, 70 mg of sodium hydroxide (MW:40.0) crystal was added thereto, followed by vigorously stirring (shaking) for 10 minutes, and centrifugation (1000 rpm, flashing) was carried out before the lid was opened. Then, 16.75 mL of 1×D-PBS (pH 7.2) was added thereto, and an iron chelating agent solution was prepared having a total amount of 31.75 mL.
Further, 1×D-PBS (pH 7.2) was added to FAC solution (20 mM) to prepare an iron citrate complex ammonium salt solution having a concentration of iron ions of 2 mM (“FAC solution (2 mM)”).
Iron citrate complex ammonium salt solution [FAC solution (20 mM), FAC solution (2 mM)]”, and 1×D-PBS (pH 7.2) were mixed at the ratios shown in Tables 1 to 2, the absorbance of the mixture (wavelength 470 nm) was measured by using a spectrophotometer (trade name “NanoDrop ND-1000 Full-spectrum UV/Vis Spectrophotometer”, manufactured by SCRUM Corporation, UV-Vis Module, Measure), and the absorbance of blank ([A] in Tables 1 to 2) was determined. Then, 158 μL of Fe-Ser•Na (50 mM) was added to the mixture, the absorbance (wavelength 470 nm) was measured as described above, and the absorbance after addition of iron chelating agent according to Examples ([B] in Tables 1 to 2) was determined.

[3] = test system: iron citrate complex ammonium salt (FAC); assay: Evaluation C: chelating ability in MOPS/acetonitrile solvent, FAC solution
Procedure: as §1, §2, §3, §4, §5, §6, §7
An iron citrate complex ammonium salt solution (FAC solution (20 mM)) having a concentration of iron ions of 20 mM and an iron citrate complex ammonium salt solution (FAC solution (2 mM)) having a concentration of iron ions of 2 mM were prepared, in the same manner as the preparation method of the iron citrate complex ammonium solution in evaluation A of the iron chelating agent.
FAC solution (20 mM) was added to and mixed with each of the iron chelating agent solutions [Fe-Ser•Na (MOPS solution), Fe-His•Na (MOPS solution), Fe-Glu•Na (MOPS solution)] using MOPS.

[4] = FAC solution (2 mM) 0 μl + 1xD-PBS 160 μl + Fe-Ser•Na (50 mM) 158 μl
[5] = FAC solution (2 mM) 10 μl + 1xD-PBS 150 μl + Fe-Ser•Na (50 mM) 158 μl
[6] = FAC solution (2 mM) 20 μl + 1xD-PBS 140 μl + Fe-Ser•Na (50 mM) 158 μl
[7] = FAC solution (2 mM) 40 μl + 1xD-PBS 120 μl + Fe-Ser•Na (50 mM) 158 μl
[8] = FAC solution (2 mM) 80 μl + 1xD-PBS 80 μl + Fe-Ser•Na (50 mM) 158 μl
[9] = FAC solution (2 mM) 160 μl + 1xD-PBS 0 μl + Fe-Ser•Na (50 mM) 158 μl
[10] = FAC solution (20 mM) 0 μl + 1xD-PBS 160 μl + Fe-Ser•Na (50 mM) 158 μl
[11] = FAC solution (20 mM) 10 μl + 1xD-PBS 150 μl + Fe-Ser•Na (50 mM) 158 μl
[12] = FAC solution (20 mM) 20 μl + 1xD-PBS 140 μl + Fe-Ser•Na (50 mM) 158 μl
[13] = FAC solution (20 mM) 40 μl + 1xD-PBS 120 μl + Fe-Ser•Na (50 mM) 158 μl
[14] = FAC solution (20 mM) 80 μl + 1xD-PBS 80 μl + Fe-Ser•Na (50 mM) 158 μl
[15] = FAC solution (20 mM) 160 μl + 1xD-PBS 0 μl + Fe-Ser•Na (50 mM) 158 μl

O=C(O)C(CO)NCc1ccccc1O (stereo not drawn) [Example 1, o-[(1-carboxy-2-hydroxyethyl)-amino-methyl]-phenol]
colour of the solution after mixing ([1]; Fe-NTA solution (2 mM) added to chelating agent MOPS solution (MOPS, acetonitrile)): dark brown-colored | colour of the solution after mixing ([1]; Fe-NTA solution (20 mM) added to chelating agent MOPS solution (MOPS, acetonitrile)): dark brown-colored | [B] absorbance after addition of iron chelating agent [2, 4]: 0.015 | [B]-[A] [2, 4]: 0.012 | [B] absorbance after addition of iron chelating agent [2, 5]: 0.027 | [B]-[A] [2, 5]: 0.023 | [B] absorbance after addition of iron chelating agent [2, 6]: 0.040 | [B]-[A] [2, 6]: 0.035 | [B] absorbance after addition of iron chelating agent [2, 7]: 0.055 | [B]-[A] [2, 7]: 0.046 | [B] absorbance after addition of iron chelating agent [2, 8]: 0.104 | [B]-[A] [2, 8]: 0.096 | [B] absorbance after addition of iron chelating agent [2, 9]: 1.181 | [B]-[A] [2, 9]: 0.169 | [B] absorbance after addition of iron chelating agent [2, 10]: 0.010 | [B]-[A] [2, 10]: 0.010 | [B] absorbance after addition of iron chelating agent [2, 11]: 0.109 | [B]-[A] [2, 11]: 0.104 | [B] absorbance after addition of iron chelating agent [2, 12]: 0.208 | [B]-[A] [2, 12]: 0.199 | [B] absorbance after addition of iron chelating agent [2, 13]: 0.405 | [B]-[A] [2, 13]: 0.390 | [B] absorbance after addition of iron chelating agent [2, 14]: 0.800 | [B]-[A] [2, 14]: 0.771 | [B] absorbance after addition of iron chelating agent [2, 15]: 1.368 | [B]-[A] [2, 15]: 1.311 | capture of iron ions from the iron citrate complex ([2]; conclusion from Tables 1 to 2): iron ions can be captured | chelating ability with iron ([2]; conclusion from Tables 1 to 2): has chelating ability with iron | colour of the solution after mixing ([3]; FAC solution (2 mM) added to chelating agent MOPS solution (MOPS, acetonitrile)): dark brown-colored | colour of the solution after mixing ([3]; FAC solution (20 mM) added to chelating agent MOPS solution (MOPS, acetonitrile)): dark brown-colored
